Assay results published in publication PMC8509705, “Liquid-Liquid Chromatography Separation of Guaiane-Type Sesquiterpene Lactones from Ferula penninervis Regel & Schmalh. and Evaluation of Their In Vitro Cytotoxic and Melanin Inhibitory Potential” (International Journal of Molecular Sciences, 2021).
Converted amounts (≈) assume the structure as drawn.

Legend:
[1] = system: androgen-dependent prostate cancer LNCaP cells; experiment: Neutral red uptake cell viability assay, LNCaP cells; type: cell-based; conditions: Homo sapiens, 48 h; for viability at 50 µg/mL: 50 μg/mL, vs DMSO control; for IC50: neutral red uptake
Method: (§1) Figure 4 Concentration-response curves showing the effect of Ferula penninervis methanolic root extract against gastrointestinal cancer cells (A), prostate cancer cells (B), skin cancer cells (C) and non-cancer cells (D) and the effect of isolated sesquiterpene lactones against prostate cancer LNCaP cells (E) and prostate epithelial PNT2 cells (F). Cells were seeded in 96-well plates (3 × 10^3/well) and treated with increasing concentrations of extract (12.5–200 μg/mL) or sesquiterpene lactones (3.125–50 μg/mL); after 48 h, the cell viability was evaluated using neutral red uptake assay. Data are expressed as percentage change in viability in comparison to the vehicle (DMSO) treated control group. Each point represents the mean ± S.E.M. of three independent experiments performed in triplicates.
Androgen-dependent prostate cancer (derived from lymph node metastasis) LNCaP (ATCC® CRL-1740), androgen-insensitive prostate cancer (derived from brain metastasis) DU145 (ATCC® HTB-81), androgen-insensitive prostate cancer (derived from bone metastasis) PC3 (ATCC® CRL-1435) and prostate epithelial PNT2 (ECACC® 95012613) cell lines were kindly provided by Dr. Vera Knäuper, School of Dentistry, Cardiff University (Cardiff, UK), whereas human colorectal carcinoma Caco-2 (ATCC® HTB-37) cell line was provided by Dr. Konrad Szychowski (University of Information Technology and Management, Rzeszów, Poland). Human gastric cancer (derived from liver metastasis) N87 (ATCC® CRL-5822), human colorectal cancer HT-29 (ATCC® HTB-38), human malignant melanoma A375 (ATCC CRL-1619), human squamous cell cancer SCC-15 (ATCC® CRL-1623) cell lines, murine melanoma B16F10 (ATCC® CRL-6475) and human skin BJ fibroblast (ATCC® CRL-2522) cell lines were purchased from LGC Standards (Łomianki, Poland), whilst immortalized human keratinocyte HaCaT cell lines were bought from Cell Lines Service (CLS) GmbH (Eppelheim, Germany).
LNCaP, PNT2 and N87 cells were grown in RPMI-1640 medium; PC3 cells were cultured in Ham’s F12; DU145, Caco-2 and BJ cells were maintained in EMEM. SCC-15 cell line was grown in DMEM:F12, whilst B16F10, HaCaT and HT-29 cell lines were maintained in DMEM. All conditioned media were supplemented with 10% FBS for all cell lines, except for Caco-2 cells which were grown in EMEM supplemented with 20% FBS. The cells were cultured at 37 °C in a humidified atmosphere with 5% CO2.
(§2) Neutral red uptake (NRU) assay was performed as described by Repetto et al.. Briefly, cells were seeded in 96-well plates (3 × 10^3 cells/well) and grown overnight. The cells were then treated with increasing concentrations of F. penninervis crude extract (12.5–200 µg/mL) and isolated compounds (3.125–50 µg/mL) or the positive control 5-FU (1 µg/mL). The control cells were grown in appropriate culture medium containing equal volume of the used solvent (DMSO). After 48 h, the cells were incubated for 3 h with neutral red solution (33 µg/mL) in conditioned medium containing 1% FBS. […] The absorbance of the released neutral red was measured at λ = 540 nm using FilterMax F5 microplate reader and corrected by the absorbance at λ = 620 nm. The mean measured value for the lysate from control cells was set as 100% cellular viability and used to calculate the percentage of viable cells following extracts treatment.
(§3) All experiments were performed in triplicate and the results were expressed as mean ± standard error of mean (SEM). […]

B16F10 cells [2] = conditions: cited from earlier work
B16F10 cells [3] = system: B16F10 cells; parameters: method as in doi:10.1186/s13765-019-0468-7; conditions: 3 and 6 μM; cited from earlier work
[4] = system: αMSH-stimulated murine melanoma B16F10 cells; experiment: Melanin release in conditioned medium of αMSH-stimulated B16F10 cells; type: cell-based; conditions: αMSH 10 nM, 72 h; for melanin release in the medium: 10 μg/mL
Method: (§4) Figure 5 Influence of Ferula penninervis root extract and isolated sesquiterpene lactones on melanin release in conditioned medium (A), melanin content in cell lysate (B) and cell viability (C) in α-MSH-stimulated murine melanoma B16F10 cells. B16F10 cells were seeded in 6-well plates (0.5 × 10^5/well) and treated with extract (100 μg/mL) or sesquiterpene lactones (10 μg/mL); melanin production was stimulated with α-MSH (10 nM). Kojic acid (100 μg/mL) was used as positive control. After 72 h, the melanin release/content and cell viability were assessed. Data are expressed as the percentage of melanin release/content in comparison with α-MSH stimulated control cells (α-MSH+) (A,B) or as percentage change in viability in comparison to the vehicle (DMSO) treated control group (C). Each point represents the mean ± S.E.M. of three independent experiments performed in triplicates; # p < 0.001 vs. non-stimulated control cells (αMSH-); ** p < 0.01; *** p < 0.001 vs. αMSH+ cells.
B16F10 cells were plated in 6-well plates (0.5 × 10^5 cells/well) and grown overnight. The cells were treated with F. penninervis crude extract (100 µg/mL), isolated compounds (10 µg/mL) or the positive control kojic acid (100 μg/mL). Melanin production was stimulated with α-MSH (10 nM). Following 72 h, the conditioned medium and cell pellets were collected. Cell pellets were dissolved in 1 N NaOH and incubated for 2 h at 80 °C. Conditioned media and cell lysates were then transferred to a 96-well plate and the absorbance was measured at λ = 405 nm using FilterMax F5 microplate reader. The content of protein in cell lysates was establish using Bradford assay. The melanin released in the conditioned medium and the melanin content in cell lysates (μg melanin/mg protein) were calculated with the help synthetic melanin calibration curves. The melanin release/content was expressed as the percentage of melanin release/content in comparison with α-MSH stimulated control cells without the tested samples.

[5] = system: erythroleukemia K562 cells; parameters: method as in PMID 24320993; conditions: cited from earlier work
MCF-7 cells = system: MCF-7 cells; parameters: method as in PMID 24320993; conditions: cited from earlier work
[6] = system: αMSH-stimulated murine melanoma B16F10 cells; experiment: Melanin content in cell lysate of αMSH-stimulated B16F10 cells; type: cell-based; conditions: 100 μg/mL, αMSH 10 nM, 72 h
Method: as §4, with “Each point represents the mean ± S.E.M. of three independent experiments performed in triplicates; # p < 0.001 vs. non-stimulated control cells (αMSH-); ** p < 0.01; *** p < 0.001 vs. αMSH+ cells.” left out
B16F10 cells were plated in 6-well plates (0.5 × 10^5 cells/well) and grown overnight. […] Conditioned media and cell lysates were then transferred to a 96-well plate and the absorbance was measured at λ = 405 nm using FilterMax F5 microplate reader. […] The melanin released in the conditioned medium and the melanin content in cell lysates (μg melanin/mg protein) were calculated with the help synthetic melanin calibration curves. The melanin release/content was expressed as the percentage of melanin release/content in comparison with α-MSH stimulated control cells without the tested samples.

[7] = system: prostate epithelial PNT2 cells; experiment: Neutral red uptake cell viability assay, PNT2 cells; type: cell-based; conditions: 48 h
Method: as §1, with “triplicates. […]” for “triplicates.”
Neutral red uptake (NRU) assay was performed as described by Repetto et al.. […] The absorbance of the released neutral red was measured at λ = 540 nm using FilterMax F5 microplate reader and corrected by the absorbance at λ = 620 nm. The mean measured value for the lysate from control cells was set as 100% cellular viability and used to calculate the percentage of viable cells following extracts treatment.
as §3

[8] = system: αMSH-stimulated murine melanoma B16F10 cells; experiment: Neutral red uptake viability at 72 h in αMSH-stimulated B16F10 cells; type: cell-based; conditions: extract 100 μg/mL, lactones 10 μg/mL, kojic acid 100 μg/mL, vs αMSH- cells
Method: To evaluate the effects of F. penninervis methanolic root extract and its isolated guaiane-type sesquiterpene lactones on the melanin synthesis and release, the melanin assay was carried out. For this purpose, the production of melanin in murine melanoma B16F10 cells was stimulated with αMSH. […] Furthermore, to exclude the possibility that the observed inhibitory effects on the melanin production might have resulted through a reduced number of viable cells, neutral red uptake assay at 72 h was performed (Figure 5C and Figure S17). […] To our knowledge, there are no previous studies reporting the melanin production inhibitory potential of Ferula genus or isolated constituents. Nevertheless, the anti-melanogenic effects of different phytochemicals were repeatedly evidenced in various cell-based assays.
as §4, §2

With O=c1[nH]cc(F)c(=O)[nH]1 [5-FU, 5-Fluorouracil, reference compound] the viability at 5 µg/mL ([1]; positive control at 5 μg/mL) was 50.6 ± 3.28%.

For COc1cc(/C=C/C(=O)N2CCC=CC2=O)cc(OC)c1OC [Piperlongumine], the total melanin production (B16F10 cells [2]; 3 and 6 μM) is given as “significantly reduced the total melanin production” and the “effect on cell growth” value (B16F10 cells [3]) is given as “no inhibitory effects on the cell growth”.

For CC=C(C)C(=O)OC1CC(C)=C2C(=O)C=C(C)C2C2OC(=O)C(C)(OC(=O)C(C)C)C12 (stereo not drawn) [daucoguaianolactone F, daucoguainolactone F], the “melanin release in the medium” value [4] was “inactive”.

In the case of C=C1C(=O)O[C@@H]2[C@H]1CC[C@]1(C)[C@H](OC(=O)/C(C)=C/C)C=CC(=C)[C@@H]21 [dehydrooopodin], the IC50 [5] is given as 5 µM and the IC50 (MCF-7 cells) is given as 15 µM.

In the case of CC1=CC(=O)C2=C(C)C[C@H](OC(=O)C(C)C)[C@@H]3[C@@H](OC(=O)[C@@]3(C)OC(=O)C(C)C)[C@H]12 [ferupennin Q, 2-oxo-8α,11α-diisobutyroyloxy-5βH,6αH,7αH-gua-1(10),3-diene-6,12-olide], the “melanin release in the medium” value [4] is reported as “inactive”.

With O=c1cc(CO)occ1O [kojic acid, reference compound] the “melanin release in the conditioned medium” value ([4]; 100 μg/mL) was 35.88 ± 3.45 % of αMSH+ control cells and the “melanin content in the cell lysate” value [6] was “but not the melanin content”.

For C/C=C(/C)C(=O)O[C@H]1CC(C)=C2C(=O)C=C(C)[C@H]2[C@@H]2OC(=O)[C@@](C)(OC(C)=O)[C@@H]21 [laferin], the viability at 50 µg/mL [1] was 14.4 ± 1.69%, the IC50 [1] was 23.3 µg/mL (≈ 57.8 µM) and the cell survival ([7]; 50 µg/mL (highest tested concentration)) was 53.85 ± 1.71%. For the same molecule, the “viability of B16F10 cells” value [8] was “without influencing the viability of B16F10 cells”.

For C=C(C)C(=O)O[C@H]1CC(C)=C2C(=O)C=C(C)[C@H]2[C@@H]2OC(=O)[C@@](C)(OC(=O)C(C)C)[C@@H]21 [oferin], the “viability of B16F10 cells” value [8] was “without influencing the viability of B16F10 cells”.

With C=C(C)C(=O)O[C@H]1CC(C)=C2C(=O)C=C(C)[C@H]2[C@@H]2OC(=O)[C@@](C)(OC(C)=O)[C@@H]21 [olgin] the viability at 50 µg/mL [1] was 43.1 ± 3.52%, the IC50 [1] was 31 µg/mL (≈ 79.9 µM) and the “effect on viability of PNT2 control cells” value ([7]; 3.125–50 μg/mL) was “did not significantly affect the viability”. For the same molecule, the “melanin release in the medium” value [4] was 40.67–65.48 % of αMSH+ control cells and the “viability of B16F10 cells” value [8] was “without influencing the viability of B16F10 cells”.

With C=C(C)C(=O)O[C@H]1CC(C)=C2C(=O)C=C(C)[C@H]2[C@@H]2OC(=O)[C@@](C)(OC(=O)C(=C)C)[C@@H]21 [olgoferin] the “viability of B16F10 cells” value [8] was “without influencing the viability of B16F10 cells”.

In the case of C[C@@H]1O[C@@H](O[C@@H]2[C@@H](O)[C@H](O)[C@@H](CO)O[C@H]2c2c(O)cc(O)c3c(=O)cc(-c4ccc(O)cc4)oc23)[C@H](O)[C@H](O)[C@H]1O [vitexin-2ʺ-O-rhamnoside], the “decrease of intracellular melanin production compared to untreated cells” value (B16F10 cells [2]; 5 μM) is given as “threefold”.
